# Patent US11459324B2, “O-glycoprotein-2-acetamido-2-deoxy-3-D-glycopyranosidase inhibitors” (BIOGEN MA INC., priority 2018, dated 2022)
# Biological target: T1, Recombinant full length human OGA enzyme (Homo sapiens, UniProt O60502)
# T1 construct: Recombinant full length human OGA enzyme was purchased from Origene; purchased Origene
# T1 sequence (O60502 1-916): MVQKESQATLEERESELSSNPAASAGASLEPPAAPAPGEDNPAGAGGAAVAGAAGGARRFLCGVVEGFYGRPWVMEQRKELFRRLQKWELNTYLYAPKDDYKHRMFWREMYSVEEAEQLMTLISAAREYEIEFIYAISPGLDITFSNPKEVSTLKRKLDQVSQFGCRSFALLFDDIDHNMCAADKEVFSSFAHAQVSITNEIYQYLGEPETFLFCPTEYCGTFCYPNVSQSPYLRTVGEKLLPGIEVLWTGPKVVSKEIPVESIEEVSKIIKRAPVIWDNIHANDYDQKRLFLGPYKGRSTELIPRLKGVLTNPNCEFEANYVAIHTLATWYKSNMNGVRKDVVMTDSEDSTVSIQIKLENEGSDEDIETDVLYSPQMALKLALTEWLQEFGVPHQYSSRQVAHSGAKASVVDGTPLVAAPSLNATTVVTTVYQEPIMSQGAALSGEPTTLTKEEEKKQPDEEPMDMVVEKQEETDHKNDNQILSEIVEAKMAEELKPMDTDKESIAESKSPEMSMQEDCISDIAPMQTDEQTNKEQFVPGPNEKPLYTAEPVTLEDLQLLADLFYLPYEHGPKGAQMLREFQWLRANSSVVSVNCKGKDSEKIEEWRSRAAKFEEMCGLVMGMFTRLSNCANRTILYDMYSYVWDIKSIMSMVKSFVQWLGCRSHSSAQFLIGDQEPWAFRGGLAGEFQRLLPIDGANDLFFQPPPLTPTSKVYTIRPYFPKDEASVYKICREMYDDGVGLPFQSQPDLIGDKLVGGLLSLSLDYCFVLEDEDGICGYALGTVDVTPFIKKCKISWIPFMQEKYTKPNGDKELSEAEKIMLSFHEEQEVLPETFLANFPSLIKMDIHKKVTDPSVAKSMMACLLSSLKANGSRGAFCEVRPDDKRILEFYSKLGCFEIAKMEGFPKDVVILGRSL
# Test: OGA Enzyme Inhibition Biochemical Assay
# Settings: 1 nM OGA, 100 μM 4-MUGlcNAc (Km), pH 6.4, 90 minutes at room temperature, 10-point dose-response from 20 μM
# Protocol: OGA Enzyme Inhibition Biochemical Assay
# Recombinant full length human OGA enzyme was purchased from Origene. 4-MUGlCNAc substrate was purchased from Sigma. All other reagents were purchased from Sigma or Fisher. Assay buffer consists of the McIlvaine buffer system, pH 6.4 (0.2M Na2HPO4 mixed with 0.1M citric acid) and 0.01% BSA. Reactions consist of 1 nM OGA, 100 μM 4-MUGlcNAc (Km), and compound in a final volume of 10 μl. Reactions were incubated for 90 minutes at room temperature and quenched with 40 μl of 3M glycine, pH 10 and read on a Perkin Elmer Envision plate reader (Ex: 355 nm/Em: 460 nm). Compounds were tested with a 10-point dose-response starting from 20 μM with a 4-fold dilution. Data was fit using GraphPad Prism using a 4-parameter fit with variable slope.
row,IC50,SMILES
1,130 nM,"CC(=O)Nc1nnc(CN2CC[C@H](Cc3cc(C)nc(C)c3)C2)s1 [Example 3-47, (S)—N-(5-((3-((2,6-dimethylpyridin-4-yl)methyl)pyrrolidin-1-yl)methyl)-1,3,4-thiadiazol-2-yl)acetamide]"
2,6.6 nM,"CC(=O)Nc1nc(F)c(CN2CCCC(Cc3noc(C)n3)C2)s1 (stereo not drawn) [Example 4-18, N-(4-fluoro-5-((3-((5-methyl-1,2,4-oxadiazol-3-yl)methyl)piperidin-1-yl)methyl)thiazol-2-yl)acetamide]"
3,8.3 nM,"CC(=O)Nc1nc(F)c(CN2CC[C@H](Cc3cc(C)ncc3F)C2)s1 [Example 3-28, (S)—N-(4-fluoro-5-((3-((5-fluoro-2-methylpyridin-4-yl)methyl)pyrrolidin-1-yl)methyl)thiazol-2-yl)acetamide]"
4,2 nM,"COc1cnc(CC2CCCN(Cc3cnc(NC(C)=O)s3)C2)nc1 (stereo not drawn) [Example 2-4, N-(5-((3-((5-methoxypyrimidin-2-yl)methyl)piperidin-1-yl)methyl)thiazol-2-yl)acetamide]"
5,30 nM,"CC(=O)Nc1ncc(CN2CCC[C@H](Cc3ncc(C(F)(F)F)cn3)C2)s1 [Example 2-9, (R)-N-(5-((3-((5-(trifluoromethyl)pyrimidin-2-yl)methyl)piperidin-1-yl)methyl)thiazol-2-yl)acetamide]"
6,240 nM,"CC(=O)Nc1ncc(CN2CCCC(F)(Cc3ncc(F)cn3)C2)s1 (stereo not drawn) [Example 2-12, N-(5-((3-fluoro-3-((5-fluoropyrimidin-2-yl)methyl)piperidin-1-yl)methyl)thiazol-2-yl)acetamide]"
7,1200 nM,"CC(=O)Nc1ncc(CN2C[C@H](Cc3ncc(F)cn3)C[C@@H]2C(F)(F)F)s1 (single isomer, unassigned) [Example 2-47]"
8,2 nM,"CC(=O)Nc1ncc(CN2CCC[C@H](Cc3ncccn3)C2)s1 [Example 3-7, (R)-N-(5-((3-(pyrimidin-2-ylmethyl)piperidin-1-yl)methyl)thiazol-2-yl)acetamide]"
9,8.9 nM,"CC(=O)Nc1ncc(CN2CCC[C@H](Cc3ccc(Cl)cc3)C2)s1 (stereo in doubt) [Example 4-25, N-(5-((3-(4-chlorobenzyl)piperidin-1-yl)methyl)thiazol-2-yl)acetamide]"
10,2 nM,"CC(=O)Nc1ncc(CN2CCC[C@H](Cc3ncc(C(F)F)cn3)C2)s1 [Example 3-6, (R)-N-(5-((3-((5-(difluoromethyl)pyrimidin-2-yl)methyl)piperidin-1-yl)methyl)thiazol-2-yl)acetamide]"
11,1.3 nM,"COc1cc(C[C@H]2CCCN(Cc3cnc(NC(C)=O)s3)C2)ncn1 [Example 3-23, (R)-N-(5-((3-((6-methoxypyrimidin-4-yl)methyl)piperidin-1-yl)methyl)thiazol-2-yl)acetamide]"
12,1 nM,"CC(=O)Nc1ncc(CN2CCC[C@H](Cc3ncc(F)cn3)C2)s1 [Example 3-1, N-[5-[[(3R)-3-[(5-fluoropyrimidin-2-yl)methyl]-1-piperidyl]methyl]thiazol-2-yl]acetamide]"
13,2 nM,"COc1nccc(CC2CCCN(Cc3cnc(NC(C)=O)s3)C2)c1C (stereo not drawn) [Example 2-3, N-(5-((3-((2-methoxy-3-methylpyridin-4-yl)methyl)piperidin-1-yl)methyl)thiazol-2-yl)acetamide]"
14,58 nM,"CC(=O)Nc1ncc(CN2CCCC(Cn3cnc4ccccc43)C2)s1 (stereo not drawn) [Example 4-24, N-(5-((3-((1H-benzo[d]imidazol-1-yl)methyl)piperidin-1-yl)methyl)thiazol-2-yl)acetamide]"
15,27 nM,"CC(=O)Nc1ncc(CN2CCCC(Cc3nnc4ccccn34)C2)s1 (stereo not drawn) [Example 4-23, N-(5-((3-([1,2,4]triazolo[4,3-a]pyridin-3-ylmethyl)piperidin-1-yl)methyl)thiazol-2-yl)acetamide]"
16,38 nM,"CC(=O)Nc1ncc(CN2CCCC(Cn3cncn3)C2)s1 (stereo not drawn) [Example 4-21, N-(5-((3-((1H-1,2,4-triazol-1-yl)methyl)piperidin-1-yl)methyl)thiazol-2-yl)acetamide]"
17,< 1 nM,"COc1cc(C[C@H]2C[C@H](C)N(Cc3sc(NC(C)=O)nc3F)C2)ncn1 [Example 3-46, N-(4-fluoro-5-(((2S,4R)-4-((6-methoxypyrimidin-4-yl)methyl)-2-methylpyrrolidin-1-yl)methyl)thiazol-2-yl)acetamide]"
18,2 nM,"CC(=O)Nc1ncc(CN2CC(Cc3ncc(F)cn3)CC2C)s1 (stereo not drawn) [Example 2-17, N-(5-((4-((5-fluoropyrimidin-2-yl)methyl)-2-methylpyrrolidin-1-yl)methyl)thiazol-2-yl)acetamide]"
19,3900 nM,"CC(=O)Nc1ncc(CN2C[C@@H](Cc3ncc(F)cn3)C[C@@H]2C(F)(F)F)s1 (single isomer, unassigned) [Example 2-46]"
20,1600 nM,"CC(=O)Nc1ncc(CN2CCC(C)(Cc3ncc(F)cn3)C2)s1 (stereo not drawn) [Example 2-35, N-(5-((3-((5-fluoropyrimidin-2-yl)methyl)-3-methylpyrrolidin-1-yl)methyl)thiazol-2-yl)acetamide]"
21,250 nM,"CC(=O)Nc1ncc(CN2CCC(Cc3ncc(F)cn3)C2C)s1 (stereo not drawn) [Example 2-42, N-(5-((3-((5-fluoropyrimidin-2-yl)methyl)-2-methylpyrrolidin-1-yl)methyl)thiazol-2-yl)acetamide]"
22,< 1 nM,"COc1cc(C[C@@H]2C[C@H](C)N(Cc3sc(NC(C)=O)nc3F)C2)ncn1 [Example 3-44, N-(4-fluoro-5-(((2S,4S)-4-((6-methoxypyrimidin-4-yl)methyl)-2-methylpyrrolidin-1-yl)methyl)thiazol-2-yl)acetamide]"
23,< 1 nM,"CC(=O)Nc1nc(F)c(CN2CC[C@H](Cc3cc(C)nc(C)c3)C2)s1 [Example 3-24, (S)—N-(5-((3-((2,6-dimethylpyridin-4-yl)methyl)pyrrolidin-1-yl)methyl)-4-fluorothiazol-2-yl)acetamide]"

# More lines, now with the values behind:
row,SMILES,IC50
1,"CC(=O)Nc1ncc(CN2CCCC(Cc3ccncc3)C2)s1 (stereo not drawn) [Example 1-40, N-(5-((3-(pyridin-4-ylmethyl)piperidin-1-yl)methyl)thiazol-2-yl)acetamide]",4 nM
2,"COc1ccnc(CC2CCCN(Cc3cnc(NC(C)=O)s3)C2)c1 (stereo not drawn) [Example 1-9, N-(5-((3-((4-methoxypyridin-2-yl)methyl)piperidin-1-yl)methyl)thiazol-2-yl)acetamide]",12 nM
3,"COc1ccc(CC2CCN(Cc3cnc(NC(C)=O)s3)C2)nc1 (stereo not drawn) [Example 1-22, N-(5-((3-((5-methoxypyridin-2-yl)methyl)pyrrolidin-1-yl)methyl)thiazol-2-yl)acetamide]",100 nM
4,"COc1cncc(CC2CCCN(Cc3cnc(NC(C)=O)s3)C2)n1 (stereo not drawn) [Example 1-32, N-(5-((3-((6-methoxypyrazin-2-yl)methyl)piperidin-1-yl)methyl)thiazol-2-yl)acetamide]",2 nM
5,"CC(=O)Nc1nc(F)c(CN2C[C@H](Cc3noc(C)n3)C[C@@H]2C)s1 (single isomer, unassigned) [Example 4-12 Peak 2]",< 1 nM
6,"COc1cncc(CC2CCCN(Cc3cnc(NC(C)=O)s3)C2)c1 (stereo not drawn) [Example 1-8, N-(5-((3-((5-methoxypyridin-3-yl)methyl)piperidin-1-yl)methyl)thiazol-2-yl)acetamide]",29 nM
7,"CCc1cc2c(CC3CCCN(Cc4cnc(NC(C)=O)s4)C3)ncnc2s1 (stereo not drawn) [Example 1-41, N-(5-((3-((6-ethylthieno[2,3-d]pyrimidin-4-yl)methyl)piperidin-1-yl)methyl)thiazol-2-yl)acetamide]",1 nM
8,"CC(=O)Nc1nc(F)c(CN2C[C@@H](Cc3noc(C)n3)C[C@@H]2C)s1 (single isomer, unassigned) [Example 4-12 Peak 1]",< 1 nM
9,"CC(=O)Nc1ncc(CN2CCCC(Cc3cncc(F)c3)C2)s1 (stereo not drawn) [Example 1-12, N-(5-((3-((5-fluoropyridin-3-yl)methyl)piperidin-1-yl)methyl)thiazol-2-yl)acetamide]",7 nM
10,"CC(=O)Nc1ncc(CN2CCCC(Cc3ccc(C)cn3)C2)s1 (stereo not drawn) [Example 1-31, N-(5-((3-((5-methylpyridin-2-yl)methyl)piperidin-1-yl)methyl)thiazol-2-yl)acetamide]",5 nM
